Results published in the supplement of paper PMC11061612.

What was measured:
Capivasertib = compound: C1CN(CCC1(C(=O)N[C@@H](CCO)C2=CC=C(C=C2)Cl)N)C3=NC=NC4=C3C=CN4 [Capivasertib]; details: max 10 µM
In short: (§1)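 Cancer cell lines were dosed for 72 hours (final DMSO typically 0.2%) after 24 hours at 37°C and 5% CO2 in 1536-well plates containing 7.5 μl DMEM/F12 or RPMI with 10% FBS. Viability came from CellTiter-Glo 2.0 luminescence, scaled between blank-well and DMSO-well means, and dose responses were fitted to a two-parameter logistic curve with a non-linear mixed effects model. The single-agent IC50 was obtained from this fit.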

AZD1775 = compound: C=CCn1c(=O)c2cnc(Nc3ccc(N4CCN(C)CC4)cc3)nc2n1-c1cccc(C(C)(C)O)n1 [AZD1775]; details: max 3 µM
In short: as §1

Trametinib = compound: CC(=O)Nc1cccc(-n2c(=O)n(C3CC3)c(=O)c3c(Nc4ccc(I)cc4F)n(C)c(=O)c(C)c32)c1 [Trametinib]; details: max 1 µM
In short: as §1

Palbociclib = compound: CC(=O)c1c(C)c2cnc(Nc3ccc(N4CCNCC4)cn3)nc2n(C2CCCC2)c1=O [Palbociclib]; details: max 10 µM
In short: as §1

AZD1390 = compound: CC(C)n1c(=O)n(C)c2cnc3cc(F)c(-c4ccc(OCCCN5CCCCC5)nc4)cc3c21 [AZD1390]; details: max 0.3 µM
In short: as §1

Venetoclax = compound: CC1(C)CCC(CN2CCN(c3ccc(C(=O)NS(=O)(=O)c4ccc(NCC5CCOCC5)c([N+](=O)[O-])c4)c(Oc4cnc5[nH]ccc5c4)c3)CC2)=C(c2ccc(Cl)cc2)C1 [Venetoclax]; details: max 1 µM
In short: as §1

Dasatinib = compound: CC1=C(C(=CC=C1)Cl)NC(=O)C2=CN=C(S2)NC3=CC(=NC(=N3)C)N4CCN(CC4)CCO [Dasatinib]; details: max 2 µM
In short: as §1

SG3199 = compound: CC1=CN2[C@@H](C1)C=NC3=CC(=C(C=C3C2=O)OC)OCCCCCOC4=C(C=C5C(=C4)N=C[C@@H]6CC(=CN6C5=O)C)OC [SG3199]; details: max 0.001 µM
In short: as §1

AZD2811 = compound: CCN(CCO)CCCOc1ccc2c(Nc3cc(CC(=O)Nc4cccc(F)c4)[nH]n3)ncnc2c1 [AZD2811]; details: max 1 µM
In short: as §1

SN-38 = compound: CCc1c2c(nc3ccc(O)cc13)-c1cc3c(c(=O)n1C2)COC(=O)[C@]3(O)CC [SN-38]; details: max 0.3 µM
In short: as §1

AZD0156 = compound: CN(C)CCCOc1ccc(-c2ccc3ncc4c(c3c2)n(C2CCOCC2)c(=O)n4C)cn1 [AZD0156]; details: max 3 µM
In short: as §1

AZD4320 = compound: CN(CC[C@H](CSC1=CC=CC=C1)NC2=C(C=C(C=C2)S(=O)(=O)NC(=O)C3=CC=C(C=C3)N4CCC(CC4)[C@H](C5=CC=CC=C5C6=CC=C(C=C6)Cl)O)S(=O)(=O)C(F)(F)F)CCO [AZD4320]; details: max 1 µM
In short: as §1

Alisertib = compound: COc1cc(Nc2ncc3c(n2)-c2ccc(Cl)cc2C(c2c(F)cccc2OC)=NC3)ccc1C(=O)O [Alisertib]; details: max 10 µM
In short: as §1

Gefitinib = compound: COc1cc2ncnc(Nc3ccc(F)c(Cl)c3)c2cc1OCCCN1CCOCC1 [Gefitinib]; details: max 10 µM
In short: as §1

Prexasertib = compound: COc1cccc(OCCCN)c1-c1cc(Nc2cnc(C#N)cn2)n[nH]1 [Prexasertib]; details: max 1 µM
In short: as §1

Doxorubicin = compound: COc1cccc2c1C(=O)c1c(O)c3c(c(O)c1C2=O)C[C@@](O)(C(=O)CO)C[C@@H]3O[C@H]1C[C@H](N)[C@H](O)[C@H](C)O1 [Doxorubicin]; details: max 1 µM
In short: as §1

AZD5153 = compound: COc1nnc2ccc(N3CCC(c4ccc(OCCN5CCN(C)C(=O)[C@H]5C)cc4)CC3)nn12 [AZD5153]; details: max 1 µM
In short: as §1

Lapatinib = compound: CS(=O)(=O)CCNCc1ccc(-c2ccc3ncnc(Nc4ccc(OCc5cccc(F)c5)c(Cl)c4)c3c2)o1 [Lapatinib]; details: max 10 µM
In short: as §1

AZD8186 = compound: C[C@@H](Nc1cc(F)cc(F)c1)c1cc(C(=O)N(C)C)cc2c(=O)cc(N3CCOCC3)oc12 [AZD8186]; details: max 3 µM
In short: as §1

Crizotinib = compound: C[C@@H](Oc1cc(-c2cnn(C3CCNCC3)c2)cnc1N)c1c(Cl)ccc(F)c1Cl [Crizotinib]; details: max 10 µM
In short: as §1

Savolitinib = compound: C[C@@H](c1ccc2nccn2c1)n1nnc2ncc(-c3cnn(C)c3)nc21 [Savolitinib]; details: max 1 µM
In short: as §1

AZD6738 = compound: C[C@@H]1COCCN1C2=NC(=NC(=C2)C3(CC3)[S@](=N)(=O)C)C4=C5C=CNC5=NC=C4 [AZD6738]; details: max 10 µM
In short: as §1

AZD5991 = compound: Cc1c2c(nn1C)CSCc1cc(n(C)n1)CSc1cc(c3ccccc3c1)OCCCc1c(C(=O)O)n(C)c3c-2c(Cl)ccc13 [AZD5991]; details: max 1 µM
In short: as §1

AZD7648 = compound: Cc1cc2ncnn2cc1Nc1ncc2c(n1)n(C1CCOCC1)c(=O)n2C [AZD7648]; details: max 10 µM
In short: as §1

Taselisib = compound: Cc1nc(-c2cn3c(n2)-c2ccc(-c4cnn(C(C)(C)C(N)=O)c4)cc2OCC3)n(C(C)C)n1 [Taselisib]; details: max 10 µM
In short: as §1

Selumetinib = compound: Cn1cnc2c(F)c(Nc3ccc(Br)cc3Cl)c(C(=O)NOCCO)cc21 [Selumetinib]; details: max 10 µM
In short: as §1

MK-2206 = compound: NC1(c2ccc(-c3nc4ccn5c(=O)[nH]nc5c4cc3-c3ccccc3)cc2)CCC1 [MK-2206]; details: max 10 µM
In short: as §1

Olaparib = compound: O=C(c1cc(Cc2n[nH]c(=O)c3ccccc23)ccc1F)N1CCN(C(=O)C2CC2)CC1 [Olaparib]; details: max 10 µM
In short: as §1

Row | Cell Line | IC50, cell viability 72 h (Capivasertib) | IC50, cell viability 72 h (AZD1775) | IC50, cell viability 72 h (Trametinib) | IC50, cell viability 72 h (Palbociclib) | IC50, cell viability 72 h (AZD1390) | IC50, cell viability 72 h (Venetoclax) | IC50, cell viability 72 h (Dasatinib) | IC50, cell viability 72 h (SG3199) | IC50, cell viability 72 h (AZD2811) | IC50, cell viability 72 h (SN-38) | IC50, cell viability 72 h (AZD0156) | IC50, cell viability 72 h (AZD4320) | IC50, cell viability 72 h (Alisertib) | IC50, cell viability 72 h (Gefitinib) | IC50, cell viability 72 h (Prexasertib) | IC50, cell viability 72 h (Doxorubicin) | IC50, cell viability 72 h (AZD5153) | IC50, cell viability 72 h (Lapatinib) | IC50, cell viability 72 h (AZD8186) | IC50, cell viability 72 h (Crizotinib) | IC50, cell viability 72 h (Savolitinib) | IC50, cell viability 72 h (AZD6738) | IC50, cell viability 72 h (AZD5991) | IC50, cell viability 72 h (AZD7648) | IC50, cell viability 72 h (Taselisib) | IC50, cell viability 72 h (Selumetinib) | IC50, cell viability 72 h (MK-2206) | IC50, cell viability 72 h (Olaparib)
1 | ASH-3 (Thyroid Gland Carcinoma) | > 10 µM | > 3 µM | > 1 µM | > 10 µM | > 0.3 µM | > 1 µM | 1.24 µM | > 0.001 µM | > 1 µM | 0.0288 µM | > 3 µM | > 1 µM | > 10 µM | > 10 µM | 0.569 µM | 0.688 µM | 0.283 µM | > 10 µM | > 3 µM | > 10 µM | > 1 µM | > 10 µM | > 1 µM | > 10 µM | 6.86 µM | > 10 µM | > 10 µM | > 10 µM
2 | KU-19-19 (Bladder Carcinoma) | > 10 µM | 0.462 µM | 0.00644 µM | > 10 µM | > 0.3 µM | > 1 µM | 0.711 µM | > 0.001 µM | > 1 µM | 0.0416 µM | > 3 µM | > 1 µM | 5.63 µM | > 10 µM | 0.0361 µM | 0.447 µM | 0.117 µM | > 10 µM | > 3 µM | > 10 µM | > 1 µM | 2.16 µM | > 1 µM | > 10 µM | > 10 µM | 0.678 µM | > 10 µM | > 10 µM
3 | KYSE-50 (Esophageal Squamous Cell Carcinoma) | > 10 µM | 1.82 µM | > 1 µM | > 10 µM | > 0.3 µM | > 1 µM | 0.263 µM | > 0.001 µM | > 1 µM | > 0.3 µM | > 3 µM | > 1 µM | 3.86 µM | > 10 µM | 0.108 µM | > 1 µM | 0.664 µM | > 10 µM | > 3 µM | > 10 µM | > 1 µM | 8.94 µM | > 1 µM | > 10 µM | 8.39 µM | > 10 µM |  | > 10 µM
4 | KYSE-150 (Esophageal Squamous Cell Carcinoma) | > 10 µM | 1.15 µM | 0.498 µM | > 10 µM | > 0.3 µM | > 1 µM | > 2 µM | > 0.001 µM | > 1 µM | 0.117 µM | > 3 µM | > 1 µM | 5.85 µM | > 10 µM | > 1 µM | 0.158 µM | 0.42 µM | 3.19 µM | > 3 µM | 4.28 µM | > 1 µM | > 10 µM | > 1 µM | > 10 µM | 1.34 µM | > 10 µM | > 10 µM | > 10 µM
5 | LOU-NH91 (Squamous Cell Lung Carcinoma) | > 10 µM | 1.35 µM | > 1 µM | > 10 µM | > 0.3 µM | > 1 µM | 0.657 µM | > 0.001 µM | > 1 µM | 0.0171 µM | > 3 µM | > 1 µM | > 10 µM | > 10 µM | > 1 µM | 0.542 µM | 0.239 µM | > 10 µM | > 3 µM | > 10 µM | > 1 µM | > 10 µM | > 1 µM | > 10 µM | 5.87 µM | > 10 µM |  | > 10 µM
6 | MFE-319 (Endometrial Carcinoma) | > 10 µM | 0.74 µM | > 1 µM | > 10 µM | > 0.3 µM | > 1 µM | > 2 µM | > 0.001 µM | > 1 µM | > 0.3 µM | > 3 µM | > 1 µM | > 10 µM | > 10 µM | 0.0515 µM | > 1 µM | > 1 µM | > 10 µM | > 3 µM | > 10 µM | > 1 µM | 4.51 µM | > 1 µM | > 10 µM | 9.92 µM | > 10 µM | > 10 µM | > 10 µM
7 | NCI-H322M (Lung Adenocarcinoma) | > 10 µM | 0.349 µM | 0.156 µM | > 10 µM | > 0.3 µM | > 1 µM | 1.96 µM | > 0.001 µM | > 1 µM | 0.0987 µM | > 3 µM | > 1 µM | > 10 µM | 0.816 µM | 0.0106 µM | 0.735 µM | 0.742 µM | 7.36 µM | > 3 µM | > 10 µM | > 1 µM | 1.13 µM | > 1 µM | > 10 µM | 0.692 µM | 2.89 µM |  | > 10 µM
